Where no end group is shown, it is not given here.
What was measured:
[1] = test system: Pseudomonas aeruginosa PAO1; assay: Antimicrobial spread-plate (CFU) killing assay, P. aeruginosa; assay type: cell-based; settings: for non-permeabilizing inhibitory concentration (NPIC), P. aeruginosa: antimicrobial concentration (≤10% viable cells) that permeabilized ≤10% of cells, 10^6 cells/mL, Tris buffer pH 7.4, 90 min at 37 °C, from Figure 1 data, duplicates of three experiments
Procedure: To determine whether the above microbicidal concentrations exert a permeabilizing effect on fungal and bacterial membranes, the influx of the fluorescent nucleic acid-binding dye propidium iodide (PI) in cells incubated with the peptides was assessed. In cells, dye uptake reflects membrane permeabilization, as PI itself cannot permeate through an intact phospholipid bilayer. […] To select an antimicrobial but non-permeabilizing concentration of each peptide for further assays, we defined as a non-permeabilizing inhibitory concentration (NPIC) the antimicrobial inhibitory concentration (≤10% viable cells) that permeabilized ≤ 10% of cells incubated (90 min at 37 °C) in buffer solution.
Microbial susceptibility to the peptides was determined in a spread-plate assay as described previously. Briefly, cell suspensions (10^6 cells/mL) in Tris buffer (10 mM Tris-HCl, pH 7.4) were incubated for 90 min at 37 °C with 2-fold serial peptide dilutions. Peptide concentrations ranged from 0 to 2 μM. After incubation, the number of viable cells was determined by plating aliquots (100 μL) in duplicate on plates (SDA for C. albicans, TSA for P. aeruginosa, and M17G agarified medium for L. lactis) that had been dried for 30 min at room temperature in a laminar flow hood. Plates were incubated for 24–48 h at 30 °C (C. albicans and L. lactis) or 24 h at 37 °C (P. aeruginosa). Dilutions yielding 50–200 colonies were counted. Cell viability values, expressed as colony-forming units (CFUs), were calculated relative to the incubation without added peptides and represent the means ± standard deviation (SD) from duplicates of three independent experiments. For inhibition assays, unless otherwise noted, cell suspensions were preincubated (15 min at 37 °C) with the appropriate inhibitor prior to the addition of peptides, but the inhibitor was present throughout the incubation period with the peptide (90 min at 37 °C). Other specific experimental conditions are described as appropriate. In some experiments, the concentrations of human lactoferrin against C. albicans (5 μM), P. aeruginosa (1 μM), and L. lactis (0.065 μM) were used in the control assays. In various viability assays, BM2 peptide (0.25 μM), CCCP (50 μM), colistin (4 μg/mL), nystatin (50 μM), oligomycin A (16 μg/mL), piericidin A (32 μM), and TEA (10 mM) were used.

C. albicans cells [2] = assay: Extracellular potassium measurement (K+-efflux, ICP-MS); assay type: cell-based, Candida albicans; settings: Table 2; no reference given
Procedure: Potassium measurements were performed via inductively coupled plasma mass spectrometry using an Agilent 7700x ICP-MS (Agilent Technologies, Santa Clara, CA, USA). C. albicans cells were cultured in SDB for 16–20 h at 30 °C. The cells were then subcultured in the same media to the mid-logarithmic growth phase and rapidly washed in sterile, deionized, double-distilled water. The cells (10^7 cells/mL) were immediately incubated with the peptides (NPIC) for 90 min at 37 °C. The tubes were centrifuged at 1100× g for 10 min and the supernatants were collected and stored at 4 °C until analysis. The percentage of cytosolic potassium released from cell suspensions treated with nystatin (50 μM) was determined in positive control assays. Total cellular K^+-content (100% value) was measured in the supernatant of cell suspensions previously treated with 0.5% (v/v) HClO4 alone, heated for 1 h at 95 °C, and centrifuged to remove cell debris. Results are expressed as the percentage (means ± SD) of K^+-release relative to the total cellular K^+-content from duplicates of at least three independent assays.

C. albicans cells [3] = assay: Oxygen consumption measurement (polarographic), C. albicans; assay type: cell-based, Candida albicans; settings: after 30 min; defensins 2 x NPIC, human lactoferrin 20 μM, piericidin A 32 µM; preincubated 15 min at 37 °C; untreated cells 94% ± 2%; means ± SD, three experiments
Procedure: (§1) Oxygen consumption by C. albicans and P. aeruginosa cells was determined by polarographically using a biological oxygen monitor (dual digital-model 20; Rank Brothers Ltd., Cambridge, UK) at 25 °C. The apparatus consisted of a twin water-jacketed closed sample chamber, which enabled a control experiment to be conducted concurrently. The cells were grown to mid-log phase in SDB (C. albicans) or TSB (P. aeruginosa), washed twice in Tris buffer, and resuspended in the same buffer. Cell suspensions (approximately 10^7 cells/mL) were preincubated with defensins (2 x NPIC), human lactoferrin (20 μM), or piericidin A (32 μM) for 15 min at 37 °C. Oxygen consumption was recorded at 5-min intervals for a period of 30 min. Three independent experiments were performed, and the data are means ± SD.

Pma1p H^+-ATPase = settings: Table 2; no reference given
Procedure: A whole-cell proton transport assay was used to evaluate the possible inhibition of the fungal Pma1p H^+-ATPase by defensins.
To measure proton pumping from Pma1p H^+-ATPase activity, a glucose-induced acid extrusion assay was performed as previously described with modifications. Briefly, cultures of C. albicans cells were grown to mid-log phase in SDB medium and washed twice in 100 mM Tris-HCl (pH 8.0). The cells were then resuspended in 50 mM KCl and maintained for 18 h at 4 °C to reduce metabolic activity to a minimum (starvation conditions). To determine external acidification, starved cells (approximately 10^7 cells/mL) were incubated for 15 min at 37 °C in the presence or absence of the defensins (2 x NPIC). Cells incubated with 20 µM human lactoferrin or 0.5 µM BM2 peptide were used as positive controls. The initial pH of the cell suspension was adjusted to approximately pH 6.8 with HCl, and glucose (final concentration of 2.5 mM) was immediately added to the cell suspension. The pH of the medium was recorded at 5-min intervals for 20 min using a SevenMulti S50-K pH meter (Mettler-Toledo, Greifensee, Switzerland) with a calibrated electrode (InLab 413, Mettler-Toledo) under constant stirring. Each experiment was repeated three times in an independent manner.

P. aeruginosa cells = assay: Oxygen consumption measurement (polarographic), P. aeruginosa; assay type: cell-based, Pseudomonas aeruginosa; settings: after 30 min; defensins 2 x NPIC, human lactoferrin 20 μM, piericidin A 32 µM; preincubated 15 min at 37 °C; untreated cells 83% ± 2%; means ± SD, three experiments
Procedure: as §1

Substance | pseudomonacidal activity (comparison among defensins) ([1]; 0–2 μM, 90 min at 37 °C, Tris buffer) | non-permeabilizing inhibitory concentration (NPIC), P. aeruginosa [1] | Partial K^+-efflux (C. albicans cells [2]) | oxygen consumption percentage of C. albicans (C. albicans cells [3]) | Inhibition of H^+-extrusion (yeast) (Pma1p H^+-ATPase) | O2 consumption of P. aeruginosa (P. aeruginosa cells) | effect of piericidin A on bactericidal activity, P. aeruginosa ([1]; cells pretreated with 32 µM piericidin A, defensins at NPIC) | effect of CCCP on bactericidal activity, P. aeruginosa ([1]; preincubated 15 min at 37 °C with 50 µM CCCP at pH 7.4, peptides at NPIC)
hBD-3: human β-defensin, UniProtKB Q5U7J2, 45 amino acids; purchased from PeptaNova (GIINTLQKYYCRVRGGRCAVLSCLPKEEQIGKCSTRGRKCCRRKK; Beta-defensin 103; UniProt P81534 23-67, looked up) | most potent pseudomonacidal activity | 0.25 µM | Yes | 79% ± 4% | Yes | 82% ± 4% |  | 
HNP-1: human α-defensin, UniProtKB P59665, 30 amino acids, three disulfide bonds; purchased from PeptaNova |  | 0.5 µM | Yes | 87% ± 4% | Yes | 72% ± 2% | significantly (p < 0.001) protected | significant reduction
HNP-4: human α-defensin, UniProtKB P12838, 33 amino acids; purchased from PeptaNova (VCSCRLVFCRRTELRVGNCLIGGVSFTYCCTRV; ends and bridges not checked; cysteine pairing not given here; UniProt P12838 64-96, looked up) |  | 0.25 µM | Yes | 81% ± 3% | Yes | 75% ± 2% |  | 

Reference: publication PMC11242853, “The Antimicrobial Activity of Human Defensins at Physiological Non-Permeabilizing Concentrations Is Caused by the Inhibition of the Plasma Membrane H^+-ATPases” (International Journal of Molecular Sciences, 2024)
